Assays:
HepG2 WT cells [1] = experiment: Autophagosome-lysosome fusion, tandem sensor RFP-GFP-LC3B, HepG2 WT; assay type: cell-based, human; details: 24 h, high CuSO4 concentration, significance reached at 800 µM, 30–50 cells per condition
Method: (§1) For the detection of the effect of copper on autophagosome-lysosome fusion, 50,000 cells of each HepG2 WT and HepG2 ATP7B^−/− were grown on laminin-coated coverslips for 24 h, transduced with BacMam-GFP-RFP-LC3B overnight according to the manufacturer’s recommendations. The cells were then treated with CuSO4 at a concentration range from 100 µM to 800 µM for 24 h, fixed with 4% paraformaldehyde for 15 min and finally stained with 250 ng/mL DAPI (Thermo Fisher scientific, Molecular Probes, D1306) for 5 min. The coverslips were fixed on a glass slide using Mowiol 4–88 (Sigma Aldrich, 81381). The fluorescence cell imaging was acquired using a confocal Zeiss LSM 780 microscope with a 63 × 1.40 Oil DIC M27. […] Red and yellow puncta count per cell was done using the particle analysis in image J. For protein ATP7B trafficking analysis, 50,000 cells of HepG2 WT and HepG2 ATP7B^−/− were cultured in a 500 µL cell culture medium on a laminin-coated coverslip for 24 h, then transfected with EGFP-ATP7B. After 6 h post transfection, cells were transduced with BacMam-RFP-Golgi or the BacMam-RFP-Lysosome overnight, then treated with various concentrations of CuSO4 or 200 µM of bathocuproine disulfonate (BCS) for 24 h or EBSS for 2 h, respectively. […] Pearson’s correlation coefficient was analyzed per cell using the colocalization threshold of ImageJ Fiji.

HepG2 WT cells [2] = experiment: Colocalization of EGFP-ATP7B-WT with TGN, lysosome (LAMP1) and LC3B markers; assay type: cell-based, human
Method: For the detection of the effect of copper on autophagosome-lysosome fusion, 50,000 cells of each HepG2 WT and HepG2 ATP7B^−/− were grown on laminin-coated coverslips for 24 h, transduced with BacMam-GFP-RFP-LC3B overnight according to the manufacturer’s recommendations. The cells were then treated with CuSO4 at a concentration range from 100 µM to 800 µM for 24 h, fixed with 4% paraformaldehyde for 15 min and finally stained with 250 ng/mL DAPI (Thermo Fisher scientific, Molecular Probes, D1306) for 5 min. The coverslips were fixed on a glass slide using Mowiol 4–88 (Sigma Aldrich, 81381). The fluorescence cell imaging was acquired using a confocal Zeiss LSM 780 microscope with a 63 × 1.40 Oil DIC M27. […] Red and yellow puncta count per cell was done using the particle analysis in image J. For protein ATP7B trafficking analysis, 50,000 cells of HepG2 WT and HepG2 ATP7B^−/− were cultured in a 500 µL cell culture medium on a laminin-coated coverslip for 24 h, then transfected with EGFP-ATP7B. After 6 h post transfection, cells were transduced with BacMam-RFP-Golgi or the BacMam-RFP-Lysosome overnight, then treated with various concentrations of CuSO4 or 200 µM of bathocuproine disulfonate (BCS) for 24 h or EBSS for 2 h, respectively. To detect LC3B or endogenous ATP7B, the fixed cells were incubated with anti-LC3B or anti-ATP7B antibodies at 4 °C overnight followed by secondary antibody incubation, Alexa Fluor 568 goat anti-rabbit, at temperature for 1 h in the dark. Pearson’s correlation coefficient was analyzed per cell using the colocalization threshold of ImageJ Fiji.

HepG2 ATP7B^−/− cells [3] = experiment: Autophagosome-lysosome fusion, tandem sensor RFP-GFP-LC3B, HepG2 ATP7B-/-; assay type: cell-based, human; details: 24 h, 800 µM, 30–50 cells per condition
Method: as §1

HepG2 WT cells [4] = experiment: Autophagy detection by western blot (LC3B-II/LC3B-I), HepG2 WT; assay type: cell-based, human; details: 24 h treatment, 100–800 µM, effect at 600 µM and 800 µM
Method: (§2) 5 × 10^5 HepG2 cells were cultured in 2 mL of DMEM medium supplemented with 10% FBS and 1% P/S. Once the cell reached 80% confluence, they were treated with varied concentration of CuSO4 (Sigma Aldrich, 209198) from 200 µM to 800 µM for 24 h. For the starvation induction, cells were additionally treated with Earle’s Balanced Salt Solution (EBSS) media (Sigma Aldrich, E3024) for 2 h with or without 50 µM chloroquine (CLQ) prior to lysis with RIPA buffer containing inhibitor cocktails (Roche Life Science, 11697498001). Protein concentration was determined to be sure that the protein of each sample was equally loaded on the Criterion TGX precast gel for western blot detection. ATP7B, GAPDH and LC3B-II/LC3B-I was determined using the above-mentioned antibodies. Western Blot analysis was carried out as described above.

HepG2 ATP7B^−/− cells [5] = experiment: Autophagy detection by western blot (LC3B-II/LC3B-I), HepG2 ATP7B-/-; assay type: cell-based, human; details: 24 h, even at 600 µM and 800 µM
Method: as §2

LC3B = target: T1, LC3B (Homo sapiens, UniProt Q9GZQ8); experiment: Pull-down with resin-bound GST-LC3B as bait from transfected HEK293H cell lysate; assay type: binding; details: 500 µg HEK293H lysate, western blot, repeated two times
T1 construct: His6 (N, cleaved yes); MBP (N, cleaved yes); made in house; host or cells: E. coli BL21-codonplus (DE3)-RIL
Method: GST tagged LC3B was used as a bait to trap the full-length ATP7B from a lysate obtained from ATP7B transfected human embryonic kidney 293 H cell line (HEK293H) cells. To this end, 100,000 cells of HEK293H were cultured in 1 mL of DMEM media (Thermo Fisher Scientific, 31966-047) plus 10% fetal bovine serum (FBS) (Fisher Scientific, 10309433) and 1% Penicillin-Streptomycin (P/S) (Thermo Fisher Scientific, 15140122). Once the cells reached 80% confluence, cells were transfected with pIRES-GFP carrying full-length ATP7B (NM_000053.4) or its W1452A/L1455A mutant using Lipofectamine LTX and plus reagent (Invitrogen, 15338100). […] Blots were imaged on an Infrared fluorescence imaging system using Li-Cor 9120 Odyssey (LI-COR Biosciences, Bad Homburg, Germany). Protein band intensity quantification was done using ImageJ (National Institutes of Health, Bethesda, MD, USA).

| Molecule | red/yellow puncta ratio (autophagosome-lysosome fusion) (HepG2 WT cells [1]) | TGN fraction of EGFP-ATP7B (HepG2 WT cells [2]; 400 µM CuSO4, 24 h) | fold increase of EGFP-ATP7B colocalization with lysosomal structures vs basal medium condition (HepG2 WT cells [2]; 400 µM CuSO4, 24 h) | colocalization of EGFP-ATP7B with lysosomal structures (LAMP1) (HepG2 WT cells [2]; 400 µM CuSO4, 24 h, percentage from mean Pearson's correlation coefficient, 30 cells) | fold elevation of EGFP-ATP7B colocalization with LC3B vs basal copper concentration (HepG2 WT cells [2]; high CuSO4 concentration (400 µM), 24 h) | colocalization of EGFP-ATP7B with LC3B (HepG2 WT cells [2]; high CuSO4 concentration (400 µM), 24 h, from mean Pearson's correlation coefficient, 30 cells) | red/yellow puncta ratio (autophagosome-lysosome fusion) (HepG2 ATP7B^−/− cells [3]) | LC3B-II level (western blot) (HepG2 WT cells [4]) | LC3B-II/LC3B-I ratio (western blot) (HepG2 ATP7B^−/− cells [5]) | ATP7B in elution fraction of GST-LC3B pull-down (LC3B) |
| --- | --- | --- | --- | --- | --- | --- | --- | --- | --- | --- |
| O=S(=O)([O-])[O-].[Cu+2] [CuSO4] | increased red/yellow puncta ratio | no TGN fraction was detectable | about 1.2 fold | 83.6% | 4.8 fold | 11.6% | significantly decreased | significant increase of LC3B-II | did not significantly alter | – |
| wild-type ATP7B: full-length recombinant copper-transporting ATPase ATP7B from transfected HEK293H cell lysate (protein) MPEQERQITAREGASRKILSKLSLPTRAWEPAMKKSFAFDNVGYEGGLDGLGPSSQVATSTVRILGMTCQSCVKSIEDRISNLKGIISMKVSLEQGSATVKYVPSVVCLQQVCHQIGDMGFEASIAEGKAASWPSRSLPAQEAVVKLRVEGMTCQSCVSSIEGKVRKLQGVVRVKVSLSNQEAVITYQPYLIQPEDLRDHVNDMGFEAAIKSKVAPLSLGPIDIERLQSTNPKRPLSSANQNFNNSETLGHQGSHVVTLQLRIDGMHCKSCVLNIEENIGQLLGVQSIQVSLENKTAQVKYDPSCTSPVALQRAIEALPPGNFKVSLPDGAEGSGTDHRSSSSHSPGSPPRNQVQGTCSTTLIAIAGMTCASCVHSIEGMISQLEGVQQISVSLAEGTATVLYNPSVISPEELRAAIEDMGFEASVVSESCSTNPLGNHSAGNSMVQTTDGTPTSVQEVAPHTGRLPANHAPDILAKSPQSTRAVAPQKCFLQIKGMTCASCVSNIERNLQKEAGVLSVLVALMAGKAEIKYDPEVIQPLEIAQFIQDLGFEAAVMEDYAGSDGNIELTITGMTCASCVHNIESKLTRTNGITYASVALATSKALVKFDPEIIGPRDIIKIIEEIGFHASLAQRNPNAHHLDHKMEIKQWKKSFLCSLVFGIPVMALMIYMLIPSNEPHQSMVLDHNIIPGLSILNLIFFILCTFVQLLGGWYFYVQAYKSLRHRSANMDVLIVLATSIAYVYSLVILVVAVAEKAERSPVTFFDTPPMLFVFIALGRWLEHLAKSKTSEALAKLMSLQATEATVVTLGEDNLIIREEQVPMELVQRGDIVKVVPGGKFPVDGKVLEGNTMADESLITGEAMPVTKKPGSTVIAGSINAHGSVLIKATHVGNDTTLAQIVKLVEEAQMSKAPIQQLADRFSGYFVPFIIIMSTLTLVVWIVIGFIDFGVVQRYFPNPNKHISQTEVIIRFAFQTSITVLCIACPCSLGLATPTAVMVGTGVAAQNGILIKGGKPLEMAHKIKTVMFDKTGTITHGVPRVMRVLLLGDVATLPLRKVLAVVGTAEASSEHPLGVAVTKYCKEELGTETLGYCTDFQAVPGCGIGCKVSNVEGILAHSERPLSAPASHLNEAGSLPAEKDAVPQTFSVLIGNREWLRRNGLTISSDVSDAMTDHEMKGQTAILVAIDGVLCGMIAIADAVKQEAALAVHTLQSMGVDVVLITGDNRKTARAIATQVGINKVFAEVLPSHKVAKVQELQNKGKKVAMVGDGVNDSPALAQADMGVAIGTGTDVAIEAADVVLIRNDLLDVVASIHLSKRTVRRIRINLVLALIYNLVGIPIAAGVFMPIGIVLQPWMGSAAMAASSVSVVLSSLQLKCYKKPDLERYEAQAHGHMKPLTASQVSVHIGMDDRWRDSPRATPWDQVSYVSQVSLSSLTSDKPSRHSAAADDDGDKWSLLLNGRDEEQYI | – | – | – | – | – | – | – | – | – | detected in the elution fraction |
| ATP7B^W1452A/L1455A: full-length ATP7B variant W1452A/L1455A with mutated LIR3 motif (protein) MPEQERQITAREGASRKILSKLSLPTRAWEPAMKKSFAFDNVGYEGGLDGLGPSSQVATSTVRILGMTCQSCVKSIEDRISNLKGIISMKVSLEQGSATVKYVPSVVCLQQVCHQIGDMGFEASIAEGKAASWPSRSLPAQEAVVKLRVEGMTCQSCVSSIEGKVRKLQGVVRVKVSLSNQEAVITYQPYLIQPEDLRDHVNDMGFEAAIKSKVAPLSLGPIDIERLQSTNPKRPLSSANQNFNNSETLGHQGSHVVTLQLRIDGMHCKSCVLNIEENIGQLLGVQSIQVSLENKTAQVKYDPSCTSPVALQRAIEALPPGNFKVSLPDGAEGSGTDHRSSSSHSPGSPPRNQVQGTCSTTLIAIAGMTCASCVHSIEGMISQLEGVQQISVSLAEGTATVLYNPSVISPEELRAAIEDMGFEASVVSESCSTNPLGNHSAGNSMVQTTDGTPTSVQEVAPHTGRLPANHAPDILAKSPQSTRAVAPQKCFLQIKGMTCASCVSNIERNLQKEAGVLSVLVALMAGKAEIKYDPEVIQPLEIAQFIQDLGFEAAVMEDYAGSDGNIELTITGMTCASCVHNIESKLTRTNGITYASVALATSKALVKFDPEIIGPRDIIKIIEEIGFHASLAQRNPNAHHLDHKMEIKQWKKSFLCSLVFGIPVMALMIYMLIPSNEPHQSMVLDHNIIPGLSILNLIFFILCTFVQLLGGWYFYVQAYKSLRHRSANMDVLIVLATSIAYVYSLVILVVAVAEKAERSPVTFFDTPPMLFVFIALGRWLEHLAKSKTSEALAKLMSLQATEATVVTLGEDNLIIREEQVPMELVQRGDIVKVVPGGKFPVDGKVLEGNTMADESLITGEAMPVTKKPGSTVIAGSINAHGSVLIKATHVGNDTTLAQIVKLVEEAQMSKAPIQQLADRFSGYFVPFIIIMSTLTLVVWIVIGFIDFGVVQRYFPNPNKHISQTEVIIRFAFQTSITVLCIACPCSLGLATPTAVMVGTGVAAQNGILIKGGKPLEMAHKIKTVMFDKTGTITHGVPRVMRVLLLGDVATLPLRKVLAVVGTAEASSEHPLGVAVTKYCKEELGTETLGYCTDFQAVPGCGIGCKVSNVEGILAHSERPLSAPASHLNEAGSLPAEKDAVPQTFSVLIGNREWLRRNGLTISSDVSDAMTDHEMKGQTAILVAIDGVLCGMIAIADAVKQEAALAVHTLQSMGVDVVLITGDNRKTARAIATQVGINKVFAEVLPSHKVAKVQELQNKGKKVAMVGDGVNDSPALAQADMGVAIGTGTDVAIEAADVVLIRNDLLDVVASIHLSKRTVRRIRINLVLALIYNLVGIPIAAGVFMPIGIVLQPWMGSAAMAASSVSVVLSSLQLKCYKKPDLERYEAQAHGHMKPLTASQVSVHIGMDDRWRDSPRATPWDQVSYVSQVSLSSLTSDKPSRHSAAADDDGDKASLALNGRDEEQYI | – | – | – | – | – | – | – | – | – | largely reduced |

— article PMC8625360 (Cells, 2021)
